System: hepatocytes
Assay: Seq-Well scRNA-Seq of hepatocytes after APAP overdose (signature scores, DEG vs untreated)
Format: in vivo, mouse
Details: APAP vs. UT

Structure (SMILES): CC(=O)Nc1ccc(O)cc1 [APAP, acetaminophen]
- Hmgcs2 avg_logFC: 0.3105
- Hmgcs2 pct.1: 0.974
- Hmox1 avg_logFC: 0.3298
- Hmox1 pct.1: 0.108
- Hnf4a avg_logFC: 0.4538
- Hnf4a pct.1: 0.876
- Hp avg_logFC: 0.2604
- Hp pct.1: 0.998
- Hrg avg_logFC: 0.321
- Hrg pct.1: 0.88
- Hsd3b5 avg_logFC: −0.4712
- Hsd3b5 pct.1: 0.367
- Hsd17b13 avg_logFC: 0.4437
- Hsd17b13 pct.1: 0.798
- Hspa5 avg_logFC: 0.4048
- Hspa5 pct.1: 0.971
- Hyou1 avg_logFC: 0.3658
- Hyou1 pct.1: 0.561
- Igfbp4 avg_logFC: 0.3148
- Igfbp4 pct.1: 0.919
- Iigp1 avg_logFC: 0.3448
- Iigp1 pct.1: 0.851
- Il1r1 avg_logFC: 0.3633
- Il1r1 pct.1: 0.39
- Insig1 avg_logFC: 0.2541
- Insig1 pct.1: 0.597
- Itih2 avg_logFC: 0.2682
- Itih2 pct.1: 0.942
- Kif1b avg_logFC: 0.264
- Kif1b pct.1: 0.629
- Krt18 avg_logFC: 0.3307
- Krt18 pct.1: 0.72
- Lars2 avg_logFC: 1.069
- Lars2 pct.1: 0.997
- Lifr avg_logFC: −0.3532
- Lifr pct.1: 0.608
- Lipa avg_logFC: 0.2577
- Lipa pct.1: 0.73
- Lpgat1 avg_logFC: 0.3539
- Lpgat1 pct.1: 0.693
- Lpin2 avg_logFC: 0.3984
- Lpin2 pct.1: 0.79
- Lrg1 avg_logFC: 0.3478
- Lrg1 pct.1: 0.861
- Lrrc58 avg_logFC: 0.2998
- Lrrc58 pct.1: 0.542
- Man2a1 avg_logFC: 0.3404
- Man2a1 pct.1: 0.742
- Mat1a avg_logFC: 0.75
- Mat1a pct.1: 0.983
- Mbnl1 avg_logFC: 0.251
- Mbnl1 pct.1: 0.511
- Mfsd2a avg_logFC: 0.4484
- Mfsd2a pct.1: 0.413
- Mia3 avg_logFC: 0.2557
- Mia3 pct.1: 0.749
- Mt1 avg_logFC: 0.8909
- Mt1 pct.1: 0.701
- Mt2 avg_logFC: 0.6697
- Mt2 pct.1: 0.518
- Mup3 avg_logFC: −0.5425
- Mup3 pct.1: 0.999
- Mup4 avg_logFC: −1.001
- Mup4 pct.1: 0.716
- Mup5 avg_logFC: −1.342
- Mup5 pct.1: 0.541
- Mup6 avg_logFC: −1.882
- Mup6 pct.1: 0.804
- Mup7 avg_logFC: −0.6015
- Mup7 pct.1: 0.937
- Mup8 avg_logFC: −0.7268
- Mup8 pct.1: 0.13
- Mup9 avg_logFC: −1.914
- Mup9 pct.1: 0.594
- Mup11 avg_logFC: −1.728
- Mup11 pct.1: 0.84
- Mup12 avg_logFC: −0.3713
- Mup12 pct.1: 0.665
- Mup15 avg_logFC: −1.26
- Mup15 pct.1: 0.166
- Mup16 avg_logFC: −1.125
- Mup16 pct.1: 0.594
- Mup17 avg_logFC: −2.017
- Mup17 pct.1: 0.947
- Mup18 avg_logFC: −1.639
- Mup18 pct.1: 0.838
- Mup19 avg_logFC: −1.786
- Mup19 pct.1: 0.916
- Mup21 avg_logFC: −0.8723
- Mup21 pct.1: 0.702
- Myh9 avg_logFC: 0.4507
- Myh9 pct.1: 0.531
- Ndrg2 avg_logFC: 0.2845
- Ndrg2 pct.1: 0.956
- Ndufa4 avg_logFC: −0.2617
- Ndufa4 pct.1: 0.851
- Ndufs6 avg_logFC: −0.2721
- Ndufs6 pct.1: 0.678
- Nudt7 avg_logFC: −0.6192
- Nudt7 pct.1: 0.691
- P4hb avg_logFC: 0.2586
- P4hb pct.1: 0.958
- Pabpc1 avg_logFC: 0.3735
- Pabpc1 pct.1: 0.75
- Picalm avg_logFC: 0.2666
- Picalm pct.1: 0.558
- Pigr avg_logFC: 0.2747
- Pigr pct.1: 0.952
- Plin2 avg_logFC: 0.3714
- Plin2 pct.1: 0.799
- Prdx1 avg_logFC: −0.3499
- Prdx1 pct.1: 0.878
- Prdx4 avg_logFC: −0.2905
- Prdx4 pct.1: 0.55
- Pten avg_logFC: 0.265
- Pten pct.1: 0.645
- Ranbp2 avg_logFC: 0.2567
- Ranbp2 pct.1: 0.555
- Reep6 avg_logFC: 0.2892
- Reep6 pct.1: 0.837
- Retsat avg_logFC: 0.4126
- Retsat pct.1: 0.87
- Rora avg_logFC: 0.2853
- Rora pct.1: 0.547
- Rpl36al avg_logFC: −0.2702
- Rpl36al pct.1: 0.495
- Rps15 avg_logFC: −0.2722
- Rps15 pct.1: 0.49
- S100a9 avg_logFC: 0.3176
- S100a9 pct.1: 0.058
- Sdhc avg_logFC: 0.2605
- Sdhc pct.1: 0.738
- Sec61a1 avg_logFC: 0.2648
- Sec61a1 pct.1: 0.642
- Selenbp2 avg_logFC: −0.8304
- Selenbp2 pct.1: 0.751
- Sephs2 avg_logFC: 0.4286
- Sephs2 pct.1: 0.865
- Sepp1 avg_logFC: 0.3455
- Sepp1 pct.1: 1
- Serpina1a avg_logFC: −0.3347
- Serpina1a pct.1: 0.96
- Serpina1e avg_logFC: −0.4681
- Serpina1e pct.1: 0.99
- Serpina3m avg_logFC: 0.4597
- Serpina3m pct.1: 0.836
- Serpina3n avg_logFC: 0.4496
- Serpina3n pct.1: 0.76
- Serpina12 avg_logFC: −0.279
- Serpina12 pct.1: 0.362
- Sfxn1 avg_logFC: 0.2624
- Sfxn1 pct.1: 0.636
- Sh3glb1 avg_logFC: 0.2521
- Sh3glb1 pct.1: 0.47
- Slc4a4 avg_logFC: 0.2827
- Slc4a4 pct.1: 0.558
- Slc25a47 avg_logFC: 0.3096
- Slc25a47 pct.1: 0.927
- Slc39a14 avg_logFC: 0.356
- Slc39a14 pct.1: 0.552
- Slc40a1 avg_logFC: 0.2768
- Slc40a1 pct.1: 0.517
- Slco1a4 avg_logFC: 0.3826
- Slco1a4 pct.1: 0.484
- Snord118 avg_logFC: 0.4707
- Snord118 pct.1: 0.531
- Srxn1 avg_logFC: 0.564
- Srxn1 pct.1: 0.369
- Ssr3 avg_logFC: 0.2529
- Ssr3 pct.1: 0.732
- St3gal5 avg_logFC: 0.3876
- St3gal5 pct.1: 0.695
- Sult1a1 avg_logFC: 0.3652
- Sult1a1 pct.1: 0.799
- Tgoln1 avg_logFC: 0.2677
- Tgoln1 pct.1: 0.713
- Tm4sf4 avg_logFC: 0.276
- Tm4sf4 pct.1: 0.493
- Tmed5 avg_logFC: 0.3027
- Tmed5 pct.1: 0.689
- Tmem205 avg_logFC: −0.2953
- Tmem205 pct.1: 0.877
- Tnfrsf12a avg_logFC: 0.2588
- Tnfrsf12a pct.1: 0.193
- Trp53inp1 avg_logFC: 0.3977
- Trp53inp1 pct.1: 0.526
- Ttpa avg_logFC: 0.3932
- Ttpa pct.1: 0.916
- Txnrd1 pct.1: 0.64
- Uroc1 avg_logFC: 0.3135
- Uroc1 pct.1: 0.74
- Usp9x avg_logFC: 0.2541
- Usp9x pct.1: 0.503
- Wbp1l avg_logFC: 0.3662
- Wbp1l pct.1: 0.768
- Zfp91 avg_logFC: 0.2619
- Zfp91 pct.1: 0.666
- mmu-mir-6240 avg_logFC: 0.3395
- mmu-mir-6240 pct.1: 0.22
- mt-Co1 avg_logFC: −0.9219
- mt-Co1 pct.1: 0.977
- mt-Co2 avg_logFC: −1.078
